Where two headings read alike, the source gives them in different places.
What was measured:
[1] = system: BTN3A; experiment: Inhibitor dose response, surface BTN3A by flow cytometry in WT Daudi-Cas9 cells; format: cell-based, human; conditions: 72 hours, complete RPMI, vs vehicle
Protocol: Daudi-Cas9 cells (180 μL) were seeded at 275,000 cells/mL in cRPMI in round-bottom 96-well plates. Twenty μL of zoledronate, rotenone (MedChemExpress), oligomycin A (Neta Scientific), FCCP (MedChemExpress), antimycin A (Neta Scientific), AICAR (Sigma), 2-DG (Sigma), Compound 991 (Selleck Chemical), A-769662 (Sigma), ethanol (vehicle), or DMSO (vehicle, at dilutions matching the treatment) at various concentrations were added to the cells. Plate edge wells were filled with 200 μL of sterile water or PBS. The cells were grown at 37° C. for 72 hours, and stained with APC-conjugated anti-human CD277 antibody (clone BT3.1, 1:50 dilution)(Miltenyi Biotec) and 7-AAD (1:150 dilution) (Tonbo). The cells were then analyzed on the Attune NxT flow cytometer.

[2] = system: Daudi-Cas9 cells; experiment: Cancer-T cell co-culture genome-wide CRISPR knockout screen (Vγ9Vδ2 T cell killing); format: cell-based, human
[3] = MAGeCK sgRNA test, co-culture screen
[4] = log-fold change of sgRNA, surviving cells after co-culture vs baseline, MAGeCK
[5] = sgRNA abundance in surviving Daudi-Cas9 KO cells after 24 hours Vγ9Vδ2 T cell co-culture with zoledronate, MAGeCK
[6] = sgRNA enriched (TRUE) or depleted (FALSE) after T cell co-culture

Molecule | surface BTN3A (MFI) [1] | score [2, 3] | LFC [2, 4] | treat mean [2, 5] | high_in_treatment [2, 6] | LFC [2] | high_in_treatment [2] | score [2] | treat mean [2]
CC[C@H]1/C=C/C=C/C[C@@H](C)[C@H](O)[C@@](C)(O)C(=O)[C@@H](C)[C@H](O)[C@@H](C)C(=O)[C@@H](C)[C@H](O)[C@@H](C)/C=C/C(=O)O[C@@H]2[C@H](C)[C@H](CC1)O[C@]1(CC[C@H](C)[C@H](C[C@@H](C)O)O1)[C@H]2C [oligomycin A] | highest BTN3A upregulation | – | – | – | – | – | – | – | –
O=P(O)(O)C(O)(Cn1ccnc1)P(=O)(O)O [ZOL, zoledronate] | substantial and dose-dependent increase in BTN3A | – | – | – | – | – | – | – | –
SHMT2_TGCTCGACTTTTCCGGCCA: library sgRNA targeting SHMT2 (listed as DNA, chemistry not fully specified) | – | 6.1486 | −3.7292 | 220.66 | FALSE | – | – | – | –
FBXW7_AGGTTTCATACACAGTCCA: library sgRNA targeting FBXW7 (as printed in the source, key not given here) | – | 7.629 | 1.4859 | 3314.5 | TRUE | – | – | – | –
BTN3A2_GCGGGATGGCATCACTGCA: library sgRNA targeting BTN3A2 (listed as DNA, chemistry not fully specified) | – | 15.831 | 2.3489 | 5012.6 | TRUE | – | – | – | –
N6AMT1_AGCAGAAACGTGTCCTCCG: library sgRNA targeting N6AMT1 (listed as DNA, chemistry not fully specified) | – | 6.0901 | −3.683 | 224.71 | FALSE | – | – | – | –
PNLIPRP1_GCCCCTGAAAATTCTCCCC: library sgRNA targeting PNLIPRP1 (chemistry not given here) | – | – | – | – | – | −2.1878 | FALSE | 7.0018 | 1182.9
RFXAP_CGTTAGGTACCTGTGCGAA: library sgRNA targeting RFXAP (listed as DNA, chemistry not fully specified) | – | 7.0414 | 1.5428 | 2592.9 | TRUE | – | – | – | –
GTF2A2_AGCACTGGCTCAGAGGGTC: library sgRNA targeting GTF2A2 (listed as DNA, chemistry not fully specified) | – | 6.6409 | −6.616 | 29.574 | FALSE | – | – | – | –
SLC22A3_GCCTTCCTCTTCGTCGGCG: library sgRNA targeting SLC22A3 (listed as DNA, chemistry not fully specified) | – | 6.0158 | 1.0179 | 4633 | TRUE | – | – | – | –
ABCF1_AGCATCTCCGCTCATGGCA: library sgRNA targeting ABCF1 (listed as DNA, chemistry not fully specified) | – | 5.9741 | −2.7126 | 504.57 | FALSE | – | – | – | –
SPIB_CGGGTCGAAGGCTTCATAG: library sgRNA targeting SPIB (as printed in the source, key not given here) | – | 6.9394 | 1.7479 | 1900.6 | TRUE | – | – | – | –
BTN3A1_GTTGATGTGAAGGGTTACA: library sgRNA targeting BTN3A1 (listed as DNA, chemistry not fully specified) | – | 9.8596 | 1.9969 | 2842.7 | TRUE | – | – | – | –
RAB7A_CGGTTCCAGTCTCTCGGTG: library sgRNA targeting RAB7A (listed as DNA, chemistry not fully specified) | – | 6.2219 | −4.046 | 175.17 | FALSE | – | – | – | –
PRMT1_TGGTGCTGGACGTCGGCTC: library sgRNA targeting PRMT1 (listed as DNA, chemistry not fully specified) | – | 6.7595 | −8.6196 | 6.7801 | FALSE | – | – | – | –
ACACA_GTTAGAGACGCTATTCCGC: library sgRNA targeting ACACA (listed as DNA, chemistry not fully specified) | – | 7.4534 | −5.2135 | 104.65 | FALSE | – | – | – | –
N#CC(C#N)=NNc1ccc(OC(F)(F)F)cc1 [FCCP, carbonyl cyanide-4 (trifluoromethoxy) phenylhydrazone] | highest BTN3A upregulation | – | – | – | – | – | – | – | –
BTN2A1_TCTCCATGCCTGATGCAGA: library sgRNA targeting BTN2A1 (listed as DNA, chemistry not fully specified) | – | 11.104 | 1.6551 | 5566.5 | TRUE | – | – | – | –

Molecule | surface BTN3A (MFI) [1] | score [2, 3] | LFC [2, 4] | treat mean [2, 5] | high_in_treatment [2, 6] | LFC [2] | high_in_treatment [2] | score [2] | treat mean [2]
GSS_ACCCCAGCTGTGCACCGGT: library sgRNA targeting GSS (listed as DNA, chemistry not fully specified) | – | 6.1722 | −4.0666 | 169.48 | FALSE | – | – | – | –
O=CC[C@@H](O)[C@H](O)[C@H](O)CO [2-DG, 2-deoxy-D-glucose] | upregulated BTN3A levels | – | – | – | – | – | – | – | –
RFXAP_ACAGGGTTGCATCACTAGC: library sgRNA targeting RFXAP (listed as DNA, chemistry not fully specified) | – | 10.037 | 1.6018 | 4884.6 | TRUE | – | – | – | –
MRPL28_TTCCCCCCGAATCCCAGCG: library sgRNA targeting MRPL28 (as printed in the source, key not given here) | – | 7.2159 | −3.2156 | 469.77 | FALSE | – | – | – | –
AARS2_ATCCGCCTACCCCGCTCCA: library sgRNA targeting AARS2 (listed as DNA, chemistry not fully specified) | – | 6.7194 | −4.9928 | 99.765 | FALSE | – | – | – | –
NLRC5_AGTCACGTGTCCTACCGTC: library sgRNA targeting NLRC5 (listed as DNA, chemistry not fully specified) | – | 6.4705 | 1.0275 | 5262.4 | TRUE | – | – | – | –
BTN3A2_ACGTCACAGCCTCTGACAG: library sgRNA targeting BTN3A2 (listed as DNA, chemistry not fully specified) | – | 17.862 | 2.2137 | 7396.6 | TRUE | – | – | – | –
MED26_CCTCGGAACTCACGGCATG: library sgRNA targeting MED26 (as printed in the source, key not given here) | – | 6.025 | −1.9192 | 1185.6 | FALSE | – | – | – | –
FBXW7_TGAAGTCTCGTTGAAACTG: library sgRNA targeting FBXW7 (as printed in the source, key not given here) | – | 6.8093 | 1.4811 | 2652.5 | TRUE | – | – | – | –
WDR59_TATCCGCACATCGCCGTCA: library sgRNA targeting WDR59 (as printed in the source, key not given here) | – | 7.8204 | −3.8469 | 327.58 | FALSE | – | – | – | –
TSC2_AGCATCTCATACACACGCG: library sgRNA targeting TSC2 (listed as DNA, chemistry not fully specified) | – | 6.0284 | −2.8218 | 463.96 | FALSE | – | – | – | –
C=C(C)[C@H]1Cc2c(ccc3c2O[C@@H]2COc4cc(OC)c(OC)cc4[C@@H]2C3=O)O1 [rotenone] | BTN3A upregulation at two lower doses and a downregulation at one higher dose | – | – | – | – | – | – | – | –
NAPG_GCAAAAGATGCCTGCCTGA: library sgRNA targeting NAPG (listed as DNA, chemistry not fully specified) | – | 6.3569 | −6.2732 | 33.086 | FALSE | – | – | – | –
SLC2A4_CAGGTCTGAAGCGCCTGAC: library sgRNA targeting SLC2A4 (listed as DNA, chemistry not fully specified) | – | 6.0044 | 4.6166 | 47.773 | TRUE | – | – | – | –
antimycin A | highest BTN3A upregulation | – | – | – | – | – | – | – | –
N#Cc1c(O)c2c(-c3ccc(-c4ccccc4O)cc3)csc2[nH]c1=O [A-769662] | Upregulation of surface BTN3A | – | – | – | – | – | – | – | –
LUM_TAGAAAACTCCAAGATAAA: library sgRNA targeting LUM (listed as DNA, chemistry not fully specified) | – | 8.61 | 4.64 | 171.75 | TRUE | – | – | – | –
